How the values were obtained:
Assay in all cases: relative viability (nuclei count vs DMSO), 5 days (fraction); higher = more cells survive
Vorinostat + Bortezomib = compound: O=C(CCCCCCC(=O)Nc1ccccc1)NO [Vorinostat] + CC(C)C[C@H](NC(=O)[C@H](Cc1ccccc1)NC(=O)c1cnccn1)B(O)O [Bortezomib] (partner 0.002 µM)
Method in brief: (§1)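 One day after seeding in 1536-well plates, lung cancer cell lines were dosed by pin tool. Dosing was either single-drug or a fixed anchor-drug dose plus five library-drug doses (not always all listed) in √10 steps. After 5 days, nuclei were stained in one fix-and-stain step and counted on 4× images, and relative viability is the nuclei count of treated wells over that of vehicle wells, given as the median of duplicate plates.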

Vorinostat + Luminespib = compound: O=C(CCCCCCC(=O)Nc1ccccc1)NO [Vorinostat] + CCNC(=O)c1noc(-c2cc(C(C)C)c(O)cc2O)c1-c1ccc(CN2CCOCC2)cc1 [Luminespib] (partner 0.01 µM)
Method in brief: as §1

Vorinostat + Alpelisib = compound: O=C(CCCCCCC(=O)Nc1ccccc1)NO [Vorinostat] + Cc1nc(NC(=O)N2CCC[C@H]2C(N)=O)sc1-c1ccnc(C(C)(C)C(F)(F)F)c1 [Alpelisib] (partner 2 µM)
Method in brief: as §1

Vorinostat + Phenformin = compound: O=C(CCCCCCC(=O)Nc1ccccc1)NO [Vorinostat] + N=C(N)NC(=N)NCCc1ccccc1 [Phenformin] (partner 250 µM)
Method in brief: as §1

Vorinostat + Olaparib = compound: O=C(CCCCCCC(=O)Nc1ccccc1)NO [Vorinostat] + O=C(c1cc(Cc2n[nH]c(=O)c3ccccc23)ccc1F)N1CCN(C(=O)C2CC2)CC1 [Olaparib] (partner 8 µM)
Method in brief: as §1

Cell Line	relative viability (Vorinostat + Bortezomib; first compound 0.253 µM)	relative viability (Vorinostat + Bortezomib; first compound 0.8 µM)	relative viability (Vorinostat + Bortezomib; first compound 2.53 µM)	relative viability (Vorinostat + Bortezomib; first compound 8 µM)	relative viability (Vorinostat + Luminespib; first compound 0.253 µM)	relative viability (Vorinostat + Luminespib; first compound 0.8 µM)	relative viability (Vorinostat + Luminespib; first compound 2.53 µM)	relative viability (Vorinostat + Luminespib; first compound 8 µM)	relative viability (Vorinostat + Alpelisib; first compound 0.253 µM)	relative viability (Vorinostat + Alpelisib; first compound 0.8 µM)	relative viability (Vorinostat + Alpelisib; first compound 2.53 µM)	relative viability (Vorinostat + Alpelisib; first compound 8 µM)	relative viability (Vorinostat + Phenformin; first compound 0.253 µM)	relative viability (Vorinostat + Phenformin; first compound 0.8 µM)	relative viability (Vorinostat + Phenformin; first compound 2.53 µM)	relative viability (Vorinostat + Phenformin; first compound 8 µM)	relative viability (Vorinostat + Olaparib; first compound 0.253 µM)	relative viability (Vorinostat + Olaparib; first compound 0.8 µM)	relative viability (Vorinostat + Olaparib; first compound 2.53 µM)	relative viability (Vorinostat + Olaparib; first compound 8 µM)
RERF-LC-KJ	1.2	1.04	0.423	0.286	1.22	0.883	0.308	0.278	0.862	0.898	0.457	0.234	0.453	0.394	0.284	0.288	0.826	0.715	0.228	0.266
NCI-H1355	1.3	0.978	0.863	0.131	0.894	0.681	0.383	0.184	1.1	0.691	0.321	0.145	0.471	0.411	0.333	0.179	0.797	0.565	0.211	0.128
NCI-H1792	1.01	0.902	0.637	0.0799	0.533	0.388	0.295	0.144	0.742	0.55	0.207	0.0419	0.269	0.228	0.0757	0.0593	0.235	0.218	0.0385	0.0192
NCI-H647	1.18	0.609	0.0719	0.0336	0.0999	0.146	0.222	0.0619	1.51	0.966	0.254	0.0332	0.594	0.208	0.0803	0.0343	0.694	0.201	0.0618	0.0259
H3255	0.778	0.622	0.456	0.154	0.743	0.808	0.602	0.315	0.874	0.714	0.414	0.209	0.33	0.302	0.323	0.262	0.588	0.52	0.326	0.222
NCI-H1915	1.01	0.951	0.54	0.112	0.792	0.761	0.18	0.0892	1.16	1	0.4	0.0675	0.38	0.341	0.181	0.0949	0.231	0.175	0.113	0.0841
NCI-H3122	1.07	0.995	1.03	0.145	0.0783	0.0802	0.0456	0.0728	0.768	0.811	0.393	0.208	0.395	0.365	0.0662	0.118	0.543	0.574	0.319	0.0668
